# Measurements: US11077042B2, “Liquid hair dye composition” (KAO CORPORATION, priority 2017, dated 2021)
# Test: pKa of the azo dye
# Format: physicochemical
# Details: assumes blue color by proton dissociation
# Text: The liquid hair dye composition of the present invention contain, as component (A), an azo dye represented by Formula (A-2) below (HC Blue 18). The pKa of the azo dye (A-2) is 6.0, and assumes blue color by proton dissociation.
smiles,measurement,value
"NS(=O)(=O)c1ccc2nsc(N=Nc3ccc(O)c(Cl)c3)c2c1 [Example A-2, HC Blue 18]",pKa,6
